From the supplement of paper PMC10307832

Legend:
Assay in all cases: relative viability (nuclei count vs DMSO), 5 days (fraction); higher = more cells survive
IPA-3 + Dasatinib = compound: C1=CC=C2C(=C1)C=CC(=C2SSC3=C(C=CC4=CC=CC=C43)O)O [IPA-3] + Cc1nc(Nc2ncc(C(=O)Nc3c(C)cccc3Cl)s2)cc(N2CCN(CCO)CC2)n1 [Dasatinib] (partner 0.075 µM)
Procedure, shortened: (§1)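 Nuclei were stained with Hoechst during a one-step fixation (final 0.05% Triton X-100, 1% formaldehyde, 1 ug/ml Hoechst) carried out 5 days after dosing, then counted on 4× images. The cells, lung cancer lines in 1536-well plates, had been dosed by pin tool the day after seeding with one drug alone or a fixed anchor-drug dose plus five library-drug doses (not always all listed) in √10 steps. Relative viability is the nuclei count in treated wells divided by that in vehicle wells, and each value is the median of duplicate plates.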

[1] = compound: Cc1ccc(-n2nc(C(C)(C)C)cc2NC(=O)Nc2ccc(OCCN3CCOCC3)c3ccccc23)cc1 [Doramapimod] + CC(=O)c1c(C)c2cnc(Nc3ccc(N4CCNCC4)cn3)nc2n(C2CCCC2)c1=O [Palbociclib] (partner 0.5 µM)
Procedure, shortened: as §1

Doramapimod + Navitoclax = compound: Cc1ccc(-n2nc(C(C)(C)C)cc2NC(=O)Nc2ccc(OCCN3CCOCC3)c3ccccc23)cc1 [Doramapimod] + CC1(C)CCC(c2ccc(Cl)cc2)=C(CN2CCN(c3ccc(C(=O)NS(=O)(=O)c4ccc(N[C@H](CCN5CCOCC5)CSc5ccccc5)c(S(=O)(=O)C(F)(F)F)c4)cc3)CC2)C1 [Navitoclax] (partner 0.5 µM)
Procedure, shortened: as §1

Doramapimod + Pemetrexed = compound: Cc1ccc(-n2nc(C(C)(C)C)cc2NC(=O)Nc2ccc(OCCN3CCOCC3)c3ccccc23)cc1 [Doramapimod] + Nc1nc2[nH]cc(CCc3ccc(C(=O)N[C@@H](CCC(=O)O)C(=O)O)cc3)c2c(=O)[nH]1 [Pemetrexed] (partner 0.2 µM)
Procedure, shortened: as §1

## NCI-H322M
IPA-3 + Dasatinib; first compound 0.2 µM
  relative viability: 0.228
IPA-3 + Dasatinib; first compound 0.6325 µM
  relative viability: 0.248
IPA-3 + Dasatinib; first compound 2 µM
  relative viability: 0.248
IPA-3 + Dasatinib; first compound 6.325 µM
  relative viability: 0.309
IPA-3 + Dasatinib; first compound 20 µM
  relative viability: 0.264
[1]; first compound 0.02 µM
  relative viability: 0.458
[1]; first compound 0.06325 µM
  relative viability: 0.492
[1]; first compound 0.2 µM
  relative viability: 0.483
[1]; first compound 0.6325 µM
  relative viability: 0.554
[1]; first compound 2 µM
  relative viability: 0.486
Doramapimod + Navitoclax; first compound 0.02 µM
  relative viability: 1.12
Doramapimod + Navitoclax; first compound 0.06325 µM
  relative viability: 1.16
Doramapimod + Navitoclax; first compound 0.2 µM
  relative viability: 1.16
Doramapimod + Navitoclax; first compound 0.6325 µM
  relative viability: 1.33
Doramapimod + Navitoclax; first compound 2 µM
  relative viability: 1.2
Doramapimod + Pemetrexed; first compound 0.02 µM
  relative viability: 0.666
Doramapimod + Pemetrexed; first compound 0.06325 µM
  relative viability: 0.653
Doramapimod + Pemetrexed; first compound 0.2 µM
  relative viability: 0.64
Doramapimod + Pemetrexed; first compound 0.6325 µM
  relative viability: 0.644
Doramapimod + Pemetrexed; first compound 2 µM
  relative viability: 0.654

## NCI-H441
IPA-3 + Dasatinib; first compound 0.2 µM
  relative viability: 0.796
IPA-3 + Dasatinib; first compound 0.6325 µM
  relative viability: 0.295
IPA-3 + Dasatinib; first compound 2 µM
  relative viability: 0.486
IPA-3 + Dasatinib; first compound 6.325 µM
  relative viability: 0.502
IPA-3 + Dasatinib; first compound 20 µM
  relative viability: 0.438
[1]; first compound 0.02 µM
  relative viability: 0.197
[1]; first compound 0.06325 µM
  relative viability: 0.221
[1]; first compound 0.2 µM
  relative viability: 0.203
[1]; first compound 0.6325 µM
  relative viability: 0.191
[1]; first compound 2 µM
  relative viability: 0.219
Doramapimod + Navitoclax; first compound 0.02 µM
  relative viability: 0.857
Doramapimod + Navitoclax; first compound 0.2 µM
  relative viability: 0.558
Doramapimod + Navitoclax; first compound 0.6325 µM
  relative viability: 0.818
Doramapimod + Navitoclax; first compound 2 µM
  relative viability: 0.353
Doramapimod + Pemetrexed; first compound 0.02 µM
  relative viability: 0.252
Doramapimod + Pemetrexed; first compound 0.06325 µM
  relative viability: 0.244
Doramapimod + Pemetrexed; first compound 0.2 µM
  relative viability: 0.251
Doramapimod + Pemetrexed; first compound 0.6325 µM
  relative viability: 0.268
Doramapimod + Pemetrexed; first compound 2 µM
  relative viability: 0.268

## NCI-H460
IPA-3 + Dasatinib; first compound 0.2 µM
  relative viability: 0.757
IPA-3 + Dasatinib; first compound 0.6325 µM
  relative viability: 0.45
IPA-3 + Dasatinib; first compound 2 µM
  relative viability: 0.422
IPA-3 + Dasatinib; first compound 6.325 µM
  relative viability: 0.539
IPA-3 + Dasatinib; first compound 20 µM
  relative viability: 0.363
[1]; first compound 0.02 µM
  relative viability: 0.197
[1]; first compound 0.06325 µM
  relative viability: 0.195
[1]; first compound 0.2 µM
  relative viability: 0.208
[1]; first compound 0.6325 µM
  relative viability: 0.279
[1]; first compound 2 µM
  relative viability: 0.141
Doramapimod + Navitoclax; first compound 0.02 µM
  relative viability: 1.12
Doramapimod + Navitoclax; first compound 0.06325 µM
  relative viability: 1.01
Doramapimod + Navitoclax; first compound 0.2 µM
  relative viability: 1.14
Doramapimod + Navitoclax; first compound 0.6325 µM
  relative viability: 1.13
Doramapimod + Navitoclax; first compound 2 µM
  relative viability: 1.01
Doramapimod + Pemetrexed; first compound 0.02 µM
  relative viability: 0.0629
Doramapimod + Pemetrexed; first compound 0.06325 µM
  relative viability: 0.0546
Doramapimod + Pemetrexed; first compound 0.2 µM
  relative viability: 0.0497
Doramapimod + Pemetrexed; first compound 0.6325 µM
  relative viability: 0.0506
Doramapimod + Pemetrexed; first compound 2 µM
  relative viability: 0.0521

## NCI-H520
IPA-3 + Dasatinib; first compound 0.2 µM
  relative viability: 0.311
IPA-3 + Dasatinib; first compound 0.6325 µM
  relative viability: 0.194
IPA-3 + Dasatinib; first compound 2 µM
  relative viability: 0.185
IPA-3 + Dasatinib; first compound 6.325 µM
  relative viability: 0.18
IPA-3 + Dasatinib; first compound 20 µM
  relative viability: 0.179
[1]; first compound 0.02 µM
  relative viability: 0.214
[1]; first compound 0.06325 µM
  relative viability: 0.222
[1]; first compound 0.2 µM
  relative viability: 0.21
[1]; first compound 0.6325 µM
  relative viability: 0.213
[1]; first compound 2 µM
  relative viability: 0.214
Doramapimod + Navitoclax; first compound 0.02 µM
  relative viability: 1
Doramapimod + Navitoclax; first compound 0.06325 µM
  relative viability: 1.11
Doramapimod + Navitoclax; first compound 0.2 µM
  relative viability: 1.08
Doramapimod + Navitoclax; first compound 0.6325 µM
  relative viability: 1.18
Doramapimod + Navitoclax; first compound 2 µM
  relative viability: 1.02
Doramapimod + Pemetrexed; first compound 0.02 µM
  relative viability: 0.607
Doramapimod + Pemetrexed; first compound 0.06325 µM
  relative viability: 0.638
Doramapimod + Pemetrexed; first compound 0.2 µM
  relative viability: 0.732
Doramapimod + Pemetrexed; first compound 0.6325 µM
  relative viability: 0.537
Doramapimod + Pemetrexed; first compound 2 µM
  relative viability: 0.683

## NCI-H647
IPA-3 + Dasatinib; first compound 0.2 µM
  relative viability: 0.271
IPA-3 + Dasatinib; first compound 0.6325 µM
  relative viability: 0.175
IPA-3 + Dasatinib; first compound 2 µM
  relative viability: 0.192
IPA-3 + Dasatinib; first compound 6.325 µM
  relative viability: 0.115
IPA-3 + Dasatinib; first compound 20 µM
  relative viability: 0.0437
[1]; first compound 0.02 µM
  relative viability: 0.346
[1]; first compound 0.06325 µM
  relative viability: 0.335
[1]; first compound 0.2 µM
  relative viability: 0.375
[1]; first compound 0.6325 µM
  relative viability: 0.404
[1]; first compound 2 µM
  relative viability: 0.345
Doramapimod + Navitoclax; first compound 0.02 µM
  relative viability: 1.09
Doramapimod + Navitoclax; first compound 0.06325 µM
  relative viability: 1.13
Doramapimod + Navitoclax; first compound 0.2 µM
  relative viability: 1.12
Doramapimod + Navitoclax; first compound 0.6325 µM
  relative viability: 1.09
Doramapimod + Navitoclax; first compound 2 µM
  relative viability: 1.12
Doramapimod + Pemetrexed; first compound 0.02 µM
  relative viability: 0.195
Doramapimod + Pemetrexed; first compound 0.06325 µM
  relative viability: 0.138
Doramapimod + Pemetrexed; first compound 0.2 µM
  relative viability: 0.15
Doramapimod + Pemetrexed; first compound 0.6325 µM
  relative viability: 0.168
Doramapimod + Pemetrexed; first compound 2 µM
  relative viability: 0.152

## NCI-H838
IPA-3 + Dasatinib; first compound 0.2 µM
  relative viability: 0.32
IPA-3 + Dasatinib; first compound 0.6325 µM
  relative viability: 0.234
IPA-3 + Dasatinib; first compound 2 µM
  relative viability: 0.291
IPA-3 + Dasatinib; first compound 6.325 µM
  relative viability: 0.319
IPA-3 + Dasatinib; first compound 20 µM
  relative viability: 0.328
[1]; first compound 0.02 µM
  relative viability: 0.218
[1]; first compound 0.06325 µM
  relative viability: 0.217
[1]; first compound 0.2 µM
  relative viability: 0.203
[1]; first compound 0.6325 µM
  relative viability: 0.225
[1]; first compound 2 µM
  relative viability: 0.199
Doramapimod + Navitoclax; first compound 0.02 µM
  relative viability: 1.16
Doramapimod + Navitoclax; first compound 0.06325 µM
  relative viability: 1.19
Doramapimod + Navitoclax; first compound 0.2 µM
  relative viability: 1.26
Doramapimod + Navitoclax; first compound 0.6325 µM
  relative viability: 1.32
Doramapimod + Navitoclax; first compound 2 µM
  relative viability: 1.12
Doramapimod + Pemetrexed; first compound 0.02 µM
  relative viability: 0.238
Doramapimod + Pemetrexed; first compound 0.06325 µM
  relative viability: 0.252
Doramapimod + Pemetrexed; first compound 0.2 µM
  relative viability: 0.276
Doramapimod + Pemetrexed; first compound 0.6325 µM
  relative viability: 0.263
Doramapimod + Pemetrexed; first compound 2 µM
  relative viability: 0.246

## NCI-H1355
IPA-3 + Dasatinib; first compound 0.2 µM
  relative viability: 0.774
IPA-3 + Dasatinib; first compound 0.6325 µM
  relative viability: 0.719
IPA-3 + Dasatinib; first compound 2 µM
  relative viability: 0.714
IPA-3 + Dasatinib; first compound 6.325 µM
  relative viability: 0.695
IPA-3 + Dasatinib; first compound 20 µM
  relative viability: 0.594
[1]; first compound 0.02 µM
  relative viability: 0.412
[1]; first compound 0.06325 µM
  relative viability: 0.373
[1]; first compound 0.2 µM
  relative viability: 0.413
[1]; first compound 0.6325 µM
  relative viability: 0.385
[1]; first compound 2 µM
  relative viability: 0.368
Doramapimod + Navitoclax; first compound 0.02 µM
  relative viability: 0.943
Doramapimod + Navitoclax; first compound 0.06325 µM
  relative viability: 0.947
Doramapimod + Navitoclax; first compound 0.2 µM
  relative viability: 0.956
Doramapimod + Navitoclax; first compound 0.6325 µM
  relative viability: 0.923
Doramapimod + Navitoclax; first compound 2 µM
  relative viability: 0.867
Doramapimod + Pemetrexed; first compound 0.02 µM
  relative viability: 1.06
Doramapimod + Pemetrexed; first compound 0.06325 µM
  relative viability: 1.04
Doramapimod + Pemetrexed; first compound 0.2 µM
  relative viability: 0.999
Doramapimod + Pemetrexed; first compound 0.6325 µM
  relative viability: 1.05
Doramapimod + Pemetrexed; first compound 2 µM
  relative viability: 0.894

## NCI-H1395
IPA-3 + Dasatinib; first compound 0.2 µM
  relative viability: 0.408
IPA-3 + Dasatinib; first compound 0.6325 µM
  relative viability: 0.42
IPA-3 + Dasatinib; first compound 2 µM
  relative viability: 0.385
IPA-3 + Dasatinib; first compound 6.325 µM
  relative viability: 0.44
IPA-3 + Dasatinib; first compound 20 µM
  relative viability: 0.466
[1]; first compound 0.02 µM
  relative viability: 0.67
[1]; first compound 0.06325 µM
  relative viability: 0.6
[1]; first compound 0.2 µM
  relative viability: 0.64
[1]; first compound 0.6325 µM
  relative viability: 0.58
[1]; first compound 2 µM
  relative viability: 0.583
Doramapimod + Navitoclax; first compound 0.02 µM
  relative viability: 1.17
Doramapimod + Navitoclax; first compound 0.06325 µM
  relative viability: 1.12
Doramapimod + Navitoclax; first compound 0.2 µM
  relative viability: 1.1
Doramapimod + Navitoclax; first compound 0.6325 µM
  relative viability: 1.12
Doramapimod + Navitoclax; first compound 2 µM
  relative viability: 1.06
Doramapimod + Pemetrexed; first compound 0.02 µM
  relative viability: 0.82
Doramapimod + Pemetrexed; first compound 0.06325 µM
  relative viability: 1.04
Doramapimod + Pemetrexed; first compound 0.2 µM
  relative viability: 0.889
Doramapimod + Pemetrexed; first compound 0.6325 µM
  relative viability: 0.836
Doramapimod + Pemetrexed; first compound 2 µM
  relative viability: 0.696
